Source: patent US6552058B1, “Oxazolidinedione derivatives and their use” (Takeda Chemical Industries, Ltd., priority 1993, dated 2003)
Read-outs that look alike come from different tables or passages of the source.

Key:
[1] = system: KKA^y mice; assay: Hypoglycemic and hypolipidemic actions in mice (plasma glucose and triglyceride); format: in vivo; conditions: Mus musculus, po, 96 h, reduction from control group, 0.005% in powdery feed for 4 days
Text: Hypoglycemic and Hypolipidemic Actions in Mice
A test compound mixed in a powdery feed (CE-2, Japan Clea) at a rate of 0.005% was fed to KKA^y mice (9-14 week old) freely for 4 days. During the period, the animals had free access to water. Blood was collected from the orbital venous plexus. Using the plasma, glucose and triglyceride were enzymatically determined quantitatively by using Iatrochem-GLU(A) and Iatro-MA701 TG kit (latron Inc.). The respective values are percents reduction (%) found in drug-dosed groups from the control group not receiving the test compound, which are shown in [Table 1].

[2] = plasma glucose, read-out: Hypoglycemic Action % reduction
[3] = plasma triglyceride, read-out: Hypolipidemic Action % reduction

Cc1oc(-c2ccccc2)nc1C(=O)COc1ccc(CCCC2OC(=O)NC2=O)cc1 (stereo not drawn) [Example 35, 5-[3-[4-[2-(5-methyl-2-phenyl-4-oxazolyl)-2-oxoethoxy]phenyl]propyl]-2,4-oxazolidinedione]
inhibition in vivo at 0.005 % in diet [1, 2]: 42% | inhibition in vivo at 0.005 % in diet [1, 3]: 32%

Cc1oc(-c2ccccc2)nc1COc1ccc(CCC2OC(=O)NC2=O)cc1 (stereo not drawn) [Example 32, 5-[2-[4-(5-methyl-2-phenyl-4-oxazolylmethoxy)phenyl]ethyl]-2,4-oxazolidinedione]
inhibition in vivo at 0.005 % in diet [1, 2]: 63% | inhibition in vivo at 0.005 % in diet [1, 3]: 60%

Cc1oc(-c2ccccc2)nc1Cc1cc2cc(C=CC=C3OC(=O)NC3=O)ccc2o1 [Example 14, 5-[3-[2-(5-methyl-2-phenyl-4-oxazolylmethyl)benzofuran-5-yl]-2-propenylidene]-2,4-oxazolidinedione]
melting point: 237 to 239 °C

Cc1oc(-c2ccccc2)nc1Cc1cc2cc(CCCC3OC(=O)NC3=O)ccc2o1 (stereo not drawn) [Example 30, 5-[3-[2-(5-methyl-2-phenyl-4-oxazolylmethyl)benzofuran-5-yl]propyl]-2,4-oxazolidinedione]
inhibition in vivo at 0.005 % in diet [1, 2]: 57% | inhibition in vivo at 0.005 % in diet [1, 3]: 70% | melting point: 184 to 185 °C

Cc1cccc(-c2nc(CCOc3ccc(CCCC4OC(=O)NC4=O)cc3)c(C)o2)c1 (stereo not drawn) [Example 16, 5-[3-[4-[2-[5-methyl-2-(3-methylphenyl)-4-oxazolyl]ethoxy]phenyl]propyl]-2,4-oxazolidinedione]
melting point: 149 to 150 °C

Cc1oc(-c2ccccc2)nc1CCOc1ccc(CCCCCC2OC(=O)NC2=O)cc1 (stereo not drawn) [Example 31, 5-[5-[4-[2-(5-methyl-2-phenyl-4-oxazolyl)ethoxy]phenyl]pentyl]-2,4-oxazolidinedione]
melting point: 157 to 158 °C

Cc1cccc(-c2nc(CCOc3ccc(C=CC=C4OC(=O)NC4=O)cc3)c(C)o2)c1 [Example 1, 5-[4-[2-[5-methyl-2-(3-methylphenyl)-4-oxazolyl]ethoxy]cinnamylidene]-2,4-oxazolidinedione]
melting point: 213 to 214 °C

Cc1oc(-c2ccccc2)nc1COc1ccc(CCCC2OC(=O)NC2=O)cn1 (stereo not drawn) [Example 52, 5-[3-[2-(5-methyl-2-phenyl-4-oxazolylmethoxy)-5-pyridyl]propyl]-2,4-oxazolidinedione]
inhibition in vivo at 0.005 % in diet [1, 2]: 54% | inhibition in vivo at 0.005 % in diet [1, 3]: 82%

Cc1oc(-c2ccccc2)nc1COc1cccc(CCCC2OC(=O)NC2=O)c1 (stereo not drawn) [Example 56, 5-[3-[3-(5-methyl-2-phenyl-4-oxazolylmethoxy)phenyl]propyl]-2,4-oxazolidinedione]
inhibition in vivo at 0.005 % in diet [1, 2]: 32% | inhibition in vivo at 0.005 % in diet [1, 3]: 24%

Cc1oc(-c2ccccc2)nc1CCOc1ccc(C=CC=CC=C2OC(=O)NC2=O)cc1 [Example 15, 5-[5-[4-[2-(5-methyl-2-phenyl-4-oxazolyl)ethoxy]phenyl]-2,4-pentadienylidene]-2,4-oxazolidinedione]
melting point: 209 to 211 °C

Cc1oc(-c2ccccc2)nc1CCOc1ccc(CCC2OC(=O)NC2=O)cc1 (stereo not drawn) [Example 24, 5-[2-[4-[2-(5-methyl-2-phenyl-4-oxazolyl)ethoxy]phenyl]ethyl]-2,4-oxazolidinedione]
inhibition in vivo at 0.005 % in diet [1, 2]: 56% | inhibition in vivo at 0.005 % in diet [1, 3]: 53% | melting point: 193 to 194 °C

Cc1oc(-c2ccccc2)nc1CCOc1ccc(CCCC2OC(=O)NC2=O)cn1 (stereo not drawn) [Example 23, 5-[3-[2-[2-(5-methyl-2-phenyl-4-oxazolyl)ethoxy]-5-pyridyl]propyl]-2,4-oxazolidinedione]
inhibition in vivo at 0.005 % in diet [1, 2]: 39% | inhibition in vivo at 0.005 % in diet [1, 3]: 33% | melting point: 169 to 171 °C

Cc1oc(-c2ccccc2)nc1COc1ccc(CCCCCC2OC(=O)NC2=O)cc1 (stereo not drawn) [Example 33, 5-[5-[4-(5-methyl-2-phenyl-4-oxazolylmethoxy)phenyl]pentyl]-2,4-oxazolidinedione]
inhibition in vivo at 0.005 % in diet [1, 2]: 45% | inhibition in vivo at 0.005 % in diet [1, 3]: 59% | melting point: 120 to 121 °C

Cc1oc(-c2ccccc2)nc1C(O)COc1ccc(CCCC2OC(=O)NC2=O)cc1 (stereo not drawn) [Example 36, 5-[3-[4-[2-hydroxy-2-(5-methyl-2-phenyl-4-oxazolyl)ethoxy]phenyl]propyl]-2,4-oxazolidinedione]
inhibition in vivo at 0.005 % in diet [1, 2]: 56% | inhibition in vivo at 0.005 % in diet [1, 3]: 48% | melting point: 146 to 147 °C

Cc1oc(-c2ccccc2)nc1COc1ccc(C(C)CCC2OC(=O)NC2=O)cc1 (stereo not drawn) [Example 60, 5-[3-[4-(5-methyl-2-phenyl-4-oxazolylmethoxy)phenyl]butyl]-2,4-oxazolidinedione]
inhibition in vivo at 0.005 % in diet [1, 2]: 54% | inhibition in vivo at 0.005 % in diet [1, 3]: 77%

Cc1oc(-c2ccccc2)nc1COc1ccc(CCCCC2OC(=O)NC2=O)cc1 (stereo not drawn) [Example 34, 5-[4-[4-(5-methyl-2-phenyl-4-oxazolylmethoxy)phenyl]butyl]-2,4-oxazolidinedione]
inhibition in vivo at 0.005 % in diet [1, 2]: 43% | inhibition in vivo at 0.005 % in diet [1, 3]: 51% | melting point: 186 to 187 °C
